In patent US20080081841A1, “Materials and Methods for Modulating Cell Motility” (priority 2003, published 2008):

What was measured:
[1] = system: T47D-5R cells expressing Neu or Neu mutants (NYPD, YC, YD, YE); assay: Transwell migration assay, HRG-induced; assay type: cell-based, human; details: for HRG-induced migration of Neu cells: starting 4 hrs after HRG treatment, RNA or protein synthesis inhibitor
Experimental: (§1) Cell migration was tested using 8 μm-pore polycarbonate membrane Transwell chambers (Corning Costar Products, Acton, Mass., USA) as described previously^3. In brief, the bottom side of the membrane was coated with 25 μg/ml rat tail collagen I (Roche). Serum starved cells were plated in the top Transwell chamber. Medium with or without 1 nM HRG-β1 (R&D systems, Inc., Minneapolis, Minn., USA) was added to the bottom chamber and cells were allowed to migrate for 24 hours. Non-migrated cells were scraped off the top of the membrane. Migrated cells were fixed in 4% formaldehyde and stained in 0.1% crystal violet. Cells were counted under a microscope in ten high power fields. Migration was expressed as cell number per mm^2. In some instances, cells were pre-incubated for 60 minutes with the U0126 MEK inhibitor (50 μM; Promega), the LY294002 PI3K inhibitor (50 μM; Calbiochem-Novabiochem Corporation, San Diego, Calif., USA), the SB203580 p38 MAPK inhibitor (20 μM; Calbiochem), a Src inhibitor (2.5 μM), the U-73122 PLC inhibitor (2 μM; Calbiochem), cycloheximide (10 μg/ml; Sigma) or 5,6-dichloro-1-β-D-ribofuranosylbenzimidazole (20 μg/ml; Fluka Chemie GmbH, Buchs, Switzerland). Cells were then allowed to migrate for 8 hours before counting.
(§2) Cells were transfected with siRNA using Oligofectamine (GIBCO) according to the manufacturer's instructions. The following 21-mer oligoribonucleotide pairs (obtained from Xeragon Inc., Huntsville, Ala., USA) were used: for Shc (accession number HSU7377) nucleotide 236 to 25640, for Memo (CGI-27; accession number AF132961) nucleotide 460 to 480 and for control LacZ (accession number M55068) nucleotide 4277 to 4297. Cells were plated for migration assay 3 days after siRNA transfection and allowed to migrate for 24 hours. Cell lysates were also prepared 3 and 4 days after transfection and analyzed by Western blotting using a specific anti-Shc antibody (BD Transduction laboratories, Heidelberg, Germany). For Memo, mRNA was extracted using RNeasy Mini (Qiagen, Cologne, Germany) and quantitative radioactive PCR^41 was performed using Memo specific primers (forward from nucleotide 90 to 111 and reverse from nucleotide 235 to 256).
Peptides were delivered into cells using Chariot protein transfection reagent (Active Motif, Rixensart, Belgium) according to the instruction manual. 16 aa-peptides spanning Tyr residue 1201 of Neu (YC peptide) and Tyr residue 1227 of Neu (YD peptide) were obtained from Neosystem (Strasbourg, France) in phosphorylated and non phosphorylated forms. Cells were plated for migration 30 minutes after peptide transfection and the assay was finished after 22 hours.

ErbB2 = target: T1, ErbB2 (Homo sapiens, UniProt P04626); assay: Shc immunoprecipitation in SKBr3 cells; assay type: cell-based
T1 construct: endogenous in cells; host or cells: SKBr3 breast carcinoma cells

T47D and SKBr3 cells [2] = assay: HRG-induced microtubule outgrowth; assay type: cell-based; details: nocodazole-treated cells
T47D and SKBr3 cells [3] = assay: Actin staining / lamellipodia morphology; assay type: cell-based; details: nocodazole-treated cells
Experimental: Cells were grown on glass coverslips (Falcon, Le Pont De Claix, France) coated with 25 μg/ml rat tail collagen I, serum starved overnight and stimulated with 1 nM HRG-β1 for different times. Cells were fixed in 4% formaldehyde in phosphate buffer saline (PBS) for 20 minutes, permeabilized in 0.2% Triton X-100 for 10 minutes, blocked with 1% bovine serum albumin in PBS for 20 minutes before addition of anti-Myc antibody (Santa Cruz) and Alexa-Fluor 568 goat anti-mouse IgG (Molecular Probes, Leiden, The Netherlands). DNA was counterstained with 0.25 mg/ml Hoechst No. 33342 (Sigma). Actin was stained for 45 minutes with 2 U/ml TRITC-labeled phalloidin (Molecular Probes). Images were recorded with an Axioskop Zeiss microscope coupled to a Sony 3CCD camera or an Olympus IX70 microscope linked to the DeltaVision workstation (Applied Precision, Issaquah, Wa)
F-actin was visualised with TRITC-labelled phalloidin.

T47D cells = assay: Transwell migration assay; assay type: cell-based, human; details: FIG. 1a, 7f
Experimental: as §1
as §2, with “Cells were plated for migration assay 3 days after siRNA transfection and allowed to migrate for 24 hours.” left out

T1 sequence (P04626 23-1255): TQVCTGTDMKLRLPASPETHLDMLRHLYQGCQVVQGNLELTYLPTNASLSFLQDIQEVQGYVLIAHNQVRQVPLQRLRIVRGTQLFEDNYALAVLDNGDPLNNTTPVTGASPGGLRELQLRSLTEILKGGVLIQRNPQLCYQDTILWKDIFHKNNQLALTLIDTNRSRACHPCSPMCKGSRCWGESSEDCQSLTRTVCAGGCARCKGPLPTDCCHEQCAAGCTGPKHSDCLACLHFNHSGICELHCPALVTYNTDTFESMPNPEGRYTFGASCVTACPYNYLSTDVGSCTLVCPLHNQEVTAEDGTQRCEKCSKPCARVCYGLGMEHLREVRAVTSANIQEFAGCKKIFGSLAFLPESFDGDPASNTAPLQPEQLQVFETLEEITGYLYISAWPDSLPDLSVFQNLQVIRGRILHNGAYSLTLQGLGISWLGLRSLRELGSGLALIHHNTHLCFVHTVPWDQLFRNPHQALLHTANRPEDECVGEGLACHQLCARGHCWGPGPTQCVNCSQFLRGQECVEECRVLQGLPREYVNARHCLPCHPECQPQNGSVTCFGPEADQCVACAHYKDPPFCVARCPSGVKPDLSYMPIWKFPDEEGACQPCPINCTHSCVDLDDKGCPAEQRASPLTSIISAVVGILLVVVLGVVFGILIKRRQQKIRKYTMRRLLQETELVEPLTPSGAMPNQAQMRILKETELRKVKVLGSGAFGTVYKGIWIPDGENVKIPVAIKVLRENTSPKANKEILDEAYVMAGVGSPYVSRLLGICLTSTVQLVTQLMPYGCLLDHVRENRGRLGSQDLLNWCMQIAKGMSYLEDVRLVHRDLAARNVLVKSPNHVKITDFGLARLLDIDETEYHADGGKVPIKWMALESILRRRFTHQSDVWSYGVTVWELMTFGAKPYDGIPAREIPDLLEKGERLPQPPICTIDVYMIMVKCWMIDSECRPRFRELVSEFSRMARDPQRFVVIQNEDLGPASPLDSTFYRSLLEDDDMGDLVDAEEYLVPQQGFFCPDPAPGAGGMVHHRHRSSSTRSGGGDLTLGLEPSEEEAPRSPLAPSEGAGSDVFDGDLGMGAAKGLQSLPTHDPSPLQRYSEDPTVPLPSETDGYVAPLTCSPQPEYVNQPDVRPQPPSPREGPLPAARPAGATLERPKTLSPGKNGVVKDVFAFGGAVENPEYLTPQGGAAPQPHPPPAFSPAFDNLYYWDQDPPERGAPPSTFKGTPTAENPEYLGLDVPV

OC[C@H]1O[C@@H](n2cnc3cc(Cl)c(Cl)cc32)[C@H](O)[C@@H]1O [DRB, 5,6-Dichloro-1-β-D-ribofuranosylbenzimidazole] was tested, and the “HRG-induced migration of Neu cells” value ([1]; FIG. 4a) was “strongly blocked”.

In the case of C[C@@H](Nc1ncnc2[nH]c(-c3ccc(O)cc3)cc12)c1ccccc1 [PKI166], the “CGI-27's ability to associate with Shc” value (ErbB2) was “did not influence” and the “ErbB2 receptor level in Shc immunoprecipitates” value (ErbB2) was “lowered”.

In the case of C[C@@H]1C[C@@H]([C@H](O)CC2CC(=O)NC(=O)C2)C(=O)[C@@H](C)C1 [cycloheximide], the “migration rate of Neu cells” value ([1]; compared with NYPD cells, FIG. 4a) was “reduced the migration rate of Neu cells to that of NYPD cells”, the “migration of YD cells, cycloheximide treatment and Memo knock-down compared” value ([1]; effects not additive, FIG. 7d) was “blocked to a similar extent” and the “HRG-induced migration of Neu cells” value ([1]; FIG. 4a) was “strongly blocked”.

With COC(=O)Nc1nc2ccc(C(=O)c3cccs3)cc2[nH]1 [nocodazole] the microtubule growth (T47D and SKBr3 cells [2]) was “do not grow microtubules” and the lamellipodia formation (T47D and SKBr3 cells [3]) was “still capable of forming lamellipodia”.

For “EGF: epidermal growth factor (NSDSECPLSHDGYCLHDGVCMYIEALDKYACNCVVGYIGERCQYRDLKWWELR; Epidermal growth factor; UniProt P01133 971-1023, looked up)”, the “stimulation of T47D cell migration by ligand” value (shortened to “stimulation”) (T47D cells) was “to a lower degree”.

FGF2: Fibroblast growth factor (FGF) 2 was tested, and the “stimulation” value (T47D cells) was “stimulated T47D cell migration”.

For insulin: insulin, the “stimulation” value (T47D cells) was “to a lower degree”.
